Tests used:
Test in all cases: relative viability (nuclei count vs DMSO), 5 days (fraction); higher = more cells survive
Bleomycin + Tozasertib = compound: CC1=C(N=C(N=C1N)[C@H](CC(=O)N)NC[C@@H](C(=O)N)N)C(=O)N[C@@H]([C@H](C2=CN=CN2)OC3C(C(C(C(O3)CO)O)O)OC4C(C(C(C(O4)CO)O)OC(=O)N)O)C(=O)N[C@H](C)[C@H]([C@H](C)C(=O)N[C@@H]([C@@H](C)O)C(=O)NCCC5=NC(=CS5)C6=NC(=CS6)C(=O)NCCC[S+](C)C)O [Bleomycin] + Cc1cc(Nc2cc(N3CCN(C)CC3)nc(Sc3ccc(NC(=O)C4CC4)cc3)n2)n[nH]1 [Tozasertib] (partner 0.1 µM); details: main component drawn
How it was run: (§1)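 Relative viability was taken as the ratio of nuclei in treated wells to nuclei in vehicle wells. Lung cancer cell lines in 1536-well plates received compounds by pin tool one day after seeding, either one drug alone or a fixed anchor-drug dose plus five library-drug doses (not always all listed) in √10 steps. Nuclei were counted on 4× images after 5 days of treatment, and values are medians of duplicate plates.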

Bleomycin + Phenformin = compound: CC1=C(N=C(N=C1N)[C@H](CC(=O)N)NC[C@@H](C(=O)N)N)C(=O)N[C@@H]([C@H](C2=CN=CN2)OC3C(C(C(C(O3)CO)O)O)OC4C(C(C(C(O4)CO)O)OC(=O)N)O)C(=O)N[C@H](C)[C@H]([C@H](C)C(=O)N[C@@H]([C@@H](C)O)C(=O)NCCC5=NC(=CS5)C6=NC(=CS6)C(=O)NCCC[S+](C)C)O [Bleomycin] + N=C(N)NC(=N)NCCc1ccccc1 [Phenformin] (partner 250 µM); details: main component drawn
How it was run: as §1

Etoposide + Bortezomib = compound: COc1cc([C@@H]2c3cc4c(cc3[C@@H](O[C@@H]3O[C@@H]5CO[C@@H](C)O[C@H]5[C@H](O)[C@H]3O)[C@H]3COC(=O)[C@H]23)OCO4)cc(OC)c1O [Etoposide] + CC(C)C[C@H](NC(=O)[C@H](Cc1ccccc1)NC(=O)c1cnccn1)B(O)O [Bortezomib] (partner 0.002 µM)
How it was run: as §1

Etoposide + Lapatinib = compound: COc1cc([C@@H]2c3cc4c(cc3[C@@H](O[C@@H]3O[C@@H]5CO[C@@H](C)O[C@H]5[C@H](O)[C@H]3O)[C@H]3COC(=O)[C@H]23)OCO4)cc(OC)c1O [Etoposide] + CS(=O)(=O)CCNCc1ccc(-c2ccc3ncnc(Nc4ccc(OCc5cccc(F)c5)c(Cl)c4)c3c2)o1 [Lapatinib] (partner 2 µM)
How it was run: as §1

| Cell Line | relative viability (Bleomycin + Tozasertib; first compound 0.01 µM) | relative viability (Bleomycin + Tozasertib; first compound 0.03162 µM) | relative viability (Bleomycin + Tozasertib; first compound 0.1 µM) | relative viability (Bleomycin + Tozasertib; first compound 0.3162 µM) | relative viability (Bleomycin + Tozasertib; first compound 1 µM) | relative viability (Bleomycin + Phenformin; first compound 0.01 µM) | relative viability (Bleomycin + Phenformin; first compound 0.03162 µM) | relative viability (Bleomycin + Phenformin; first compound 0.1 µM) | relative viability (Bleomycin + Phenformin; first compound 0.3162 µM) | relative viability (Bleomycin + Phenformin; first compound 1 µM) | relative viability (Etoposide + Bortezomib; first compound 0.01 µM) | relative viability (Etoposide + Bortezomib; first compound 0.03162 µM) | relative viability (Etoposide + Bortezomib; first compound 0.1 µM) | relative viability (Etoposide + Bortezomib; first compound 0.3162 µM) | relative viability (Etoposide + Bortezomib; first compound 1 µM) | relative viability (Etoposide + Lapatinib; first compound 0.01 µM) | relative viability (Etoposide + Lapatinib; first compound 0.03162 µM) | relative viability (Etoposide + Lapatinib; first compound 0.1 µM) | relative viability (Etoposide + Lapatinib; first compound 0.3162 µM) | relative viability (Etoposide + Lapatinib; first compound 1 µM) |
| --- | --- | --- | --- | --- | --- | --- | --- | --- | --- | --- | --- | --- | --- | --- | --- | --- | --- | --- | --- | --- |
| HCC-15 | 0.308 | 0.343 | 0.303 | 0.148 | 0.153 | 0.418 | 0.457 | 0.387 | 0.16 | 0.129 | 0.959 | 1.04 | 1.13 | 0.67 | 0.157 | 0.849 | 0.832 | 0.846 | 0.329 | 0.152 |
| HCC-44 | 0.273 | 0.312 | 0.302 | 0.19 | 0.137 | 0.104 | 0.0979 | 0.075 | 0.0859 | 0.0579 | 1.01 | 0.905 | 1.02 | 0.781 | 0.418 | 0.989 | 0.953 | 1.06 | 0.833 | 0.245 |
| HCC-78 | 0.335 | 0.356 | 0.357 | 0.269 | 0.355 | 0.573 | 0.74 | 0.581 | 0.321 | 0.403 | 0.487 | 0.5 | 0.35 | 0.314 | 0.229 | 1.03 | 0.836 | 0.206 | 0.134 | 0.202 |
| HCC-366 | 0.0825 | 0.11 | 0.0755 | 0.0502 | 0.0319 | 0.455 | 0.618 | 0.423 | 0.159 | 0.0675 | 1.04 | 1.03 | 0.518 | 0.135 | 0.0399 | 0.978 | 0.882 | 0.382 | 0.0593 | 0.0394 |
| HCC-827 | 0.419 | 0.453 | 0.332 | 0.311 | 0.205 | 0.351 | 0.311 | 0.361 | 0.304 | 0.172 | 1.09 | 1.06 | 1.07 | 0.803 | 0.458 | 0.172 | 0.262 | 0.205 | 0.208 | 0.134 |
| HOP-62 | 0.229 | 0.208 | 0.194 | 0.144 | 0.102 | 0.395 | 0.447 | 0.239 | 0.185 | 0.105 | 0.644 | 0.901 | 0.298 | 0.412 | 0.328 | 0.973 | 1.05 | 0.833 | 0.533 | 0.187 |
| LC-2-ad | 0.395 | 0.354 | 0.34 | 0.247 | 0.276 | 0.493 | 0.536 | 0.385 | 0.283 | 0.238 | 0.9 | 1.08 | 0.977 | 0.742 | 0.209 | 0.867 | 0.961 | 0.906 | 0.649 | 0.154 |
| LCLC-97TM1 | 0.176 | 0.217 | 0.218 | 0.158 | 0.195 | 0.337 | 0.401 | 0.241 | 0.192 | 0.173 | 0.865 | 0.329 | 0.485 | 0.132 | 0.0671 |  | 1.23 | 0.465 | 0.23 | 0.124 |
| LOU-NH91 | 0.504 | 0.289 | 0.404 | 0.323 | 0.274 | 0.686 | 0.488 | 0.515 | 0.383 | 0.343 | 0.563 | 0.502 | 0.498 | 0.435 | 0.375 | 0.759 | 0.788 | 0.576 | 0.619 | 0.347 |
| LU99A | 0.27 | 0.25 | 0.216 | 0.193 | 0.147 | 0.636 | 0.827 | 0.673 | 0.33 | 0.159 | 1.31 | 1.31 | 0.661 | 0.432 | 0.19 | 1.09 | 1.18 | 0.521 | 0.347 | 0.167 |
| LXF-289 | 0.179 | 0.193 | 0.181 | 0.0822 | 0.0688 | 0.471 | 0.477 | 0.446 | 0.174 | 0.0704 | 1.01 | 1.07 | 0.994 | 0.75 | 0.252 | 0.88 | 0.972 | 0.953 | 0.601 | 0.222 |
| NCI-H23 | 0.208 | 0.268 | 0.217 | 0.161 | 0.135 | 0.518 | 0.586 | 0.357 | 0.207 | 0.17 | 0.919 | 1.15 | 0.516 | 0.317 | 0.215 | 1.11 | 1.04 | 0.608 | 0.324 | 0.215 |
| NCI-H322M | 0.424 | 0.496 | 0.473 | 0.396 | 0.38 | 0.655 | 0.74 | 0.72 | 0.377 | 0.353 | 1.27 | 1.22 | 0.994 | 1.17 | 1.07 | 0.558 | 0.596 | 0.55 | 0.586 | 0.389 |
| NCI-H460 | 0.0837 | 0.101 | 0.153 | 0.0462 | 0.0258 | 0.287 | 0.275 | 0.124 | 0.0345 | 0.0288 | 0.933 | 0.763 | 0.608 | 0.0494 | 0.0267 | 0.726 | 0.732 | 0.394 | 0.0299 | 0.0144 |

— the supplement of paper PMC10307832
